Measured values taken from the supplement of paper PMC10307832.

How the values were obtained:
Experiment in all cases: relative viability (nuclei count vs DMSO), 5 days (fraction); higher = more cells survive
Gemcitabine + Alpelisib = compound: Nc1ccn([C@@H]2O[C@H](CO)[C@@H](O)C2(F)F)c(=O)n1 [Gemcitabine] + Cc1nc(NC(=O)N2CCC[C@H]2C(N)=O)sc1-c1ccnc(C(C)(C)C(F)(F)F)c1 [Alpelisib] (partner 2 µM)
Method in brief: (§1)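 Lung cancer cell lines were seeded in 1536-well plates and dosed by pin tool the next day, with either a single drug or a fixed anchor-drug dose combined with five library-drug doses (not always all listed) spaced in √10 steps. Five days later, one step fixed the cells and stained their nuclei (final 0.05% Triton X-100, 1% formaldehyde, 1 ug/ml Hoechst), and nuclei were counted on 4× images. Relative viability is the nuclei count in treated wells divided by the count in vehicle wells, and each value is the median of duplicate plates.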

Gemcitabine + Bortezomib = compound: Nc1ccn([C@@H]2O[C@H](CO)[C@@H](O)C2(F)F)c(=O)n1 [Gemcitabine] + CC(C)C[C@H](NC(=O)[C@H](Cc1ccccc1)NC(=O)c1cnccn1)B(O)O [Bortezomib] (partner 0.002 µM)
Method in brief: as §1

Gemcitabine + Olaparib = compound: Nc1ccn([C@@H]2O[C@H](CO)[C@@H](O)C2(F)F)c(=O)n1 [Gemcitabine] + O=C(c1cc(Cc2n[nH]c(=O)c3ccccc23)ccc1F)N1CCN(C(=O)C2CC2)CC1 [Olaparib] (partner 8 µM)
Method in brief: as §1

Gemcitabine + Pemetrexed = compound: Nc1ccn([C@@H]2O[C@H](CO)[C@@H](O)C2(F)F)c(=O)n1 [Gemcitabine] + Nc1nc2[nH]cc(CCc3ccc(C(=O)N[C@@H](CCC(=O)O)C(=O)O)cc3)c2c(=O)[nH]1 [Pemetrexed] (partner 0.2 µM)
Method in brief: as §1

Cell Line | relative viability (Gemcitabine + Alpelisib; first compound 0.001 µM) | relative viability (Gemcitabine + Alpelisib; first compound 0.003162 µM) | relative viability (Gemcitabine + Alpelisib; first compound 0.01 µM) | relative viability (Gemcitabine + Alpelisib; first compound 0.03162 µM) | relative viability (Gemcitabine + Alpelisib; first compound 0.1 µM) | relative viability (Gemcitabine + Bortezomib; first compound 0.001 µM) | relative viability (Gemcitabine + Bortezomib; first compound 0.003162 µM) | relative viability (Gemcitabine + Bortezomib; first compound 0.01 µM) | relative viability (Gemcitabine + Bortezomib; first compound 0.03162 µM) | relative viability (Gemcitabine + Bortezomib; first compound 0.1 µM) | relative viability (Gemcitabine + Olaparib; first compound 0.001 µM) | relative viability (Gemcitabine + Olaparib; first compound 0.003162 µM) | relative viability (Gemcitabine + Olaparib; first compound 0.01 µM) | relative viability (Gemcitabine + Olaparib; first compound 0.03162 µM) | relative viability (Gemcitabine + Olaparib; first compound 0.1 µM) | relative viability (Gemcitabine + Pemetrexed; first compound 0.001 µM) | relative viability (Gemcitabine + Pemetrexed; first compound 0.003162 µM) | relative viability (Gemcitabine + Pemetrexed; first compound 0.01 µM) | relative viability (Gemcitabine + Pemetrexed; first compound 0.03162 µM) | relative viability (Gemcitabine + Pemetrexed; first compound 0.1 µM)
LC-2-ad | 0.901 | 0.833 | 0.5 | 0.0947 | 0.0966 | 0.998 | 0.992 | 0.476 | 0.11 | 0.0847 | 0.805 | 0.791 | 0.65 | 0.482 | 0.224 | 0.266 | 0.28 | 0.256 | 0.255 | 0.233
LCLC-97TM1 | 0.228 | 0.131 | 0.115 | 0.107 | 0.128 | 0.752 | 0.19 | 0.0897 | 0.0533 | 0.0696 | 0.331 | 0.178 | 0.0884 | 0.0632 | 0.0703 | 0.174 | 0.19 | 0.0994 | 0.0729 | 0.0912
LCLC-103H | 1 | 0.878 | 0.949 | 1 | 0.272 | 1.1 | 1.04 | 1.05 | 1.11 | 0.934 | 0.771 | 0.758 | 0.734 | 0.58 | 0.367 | 0.423 | 0.435 | 0.44 | 0.407 | 0.392
LOU-NH91 | 0.726 | 0.515 | 0.457 | 0.316 | 0.263 | 0.498 | 0.494 | 0.423 | 0.323 | 0.313 | 0.92 | 0.781 | 0.501 | 0.223 | 0.264 | 0.397 | 0.413 | 0.441 | 0.269 | 0.286
LU99A | 0.506 | 0.576 | 0.515 | 0.505 | 0.481 | 1.14 | 1.18 | 1 | 1.25 | 1.18 | 0.255 | 0.272 | 0.286 | 0.226 | 0.221 | 0.177 | 0.181 | 0.186 | 0.198 | 0.214
LXF-289 | 1.04 | 1 | 0.737 | 0.123 | 0.114 | 0.995 | 1.02 | 0.768 | 0.178 | 0.0983 | 1.07 | 0.935 | 0.303 | 0.0848 | 0.0776 | 0.901 | 0.964 | 0.642 | 0.102 | 0.0843
NCI-H23 | 0.57 | 0.242 | 0.108 | 0.129 | 0.115 | 0.848 | 0.511 | 0.148 | 0.141 | 0.0999 | 0.293 | 0.132 | 0.0825 | 0.109 | 0.0995 | 0.555 | 0.223 | 0.147 | 0.143 | 0.143
NCI-H322M | 0.562 | 0.292 | 0.245 | 0.294 | 0.271 | 1.35 | 0.439 | 0.334 | 0.291 | 0.234 | 0.564 | 0.445 | 0.356 | 0.369 | 0.411 | 0.658 | 0.367 | 0.273 | 0.329 | 0.363
NCI-H441 | 0.602 | 0.327 | 0.138 | 0.149 | 0.12 | 0.642 | 0.327 | 0.116 | 0.14 | 0.139 | 0.651 | 0.241 | 0.187 | 0.161 | 0.116 | 0.277 | 0.282 | 0.217 | 0.16 | 0.115
NCI-H460 | 0.684 | 0.484 | 0.0473 | 0.0144 | 0.0066 | 1.24 | 1.09 | 0.419 | 0.0106 | 0.0083 | 0.529 | 0.426 | 0.333 | 0.0343 | 0.022 | 0.06 | 0.0638 | 0.0721 | 0.029 | 0.019
NCI-H520 | 0.933 | 0.897 | 0.461 | 0.195 | 0.142 | 0.604 | 0.698 | 0.295 | 0.154 | 0.11 | 0.388 | 0.48 | 0.174 | 0.159 | 0.132 | 0.663 | 0.719 | 0.275 | 0.177 | 0.161
NCI-H596 | 0.489 | 0.454 | 0.345 | 0.329 | 0.194 | 1 | 1.11 | 0.555 | 0.349 | 0.41 | 0.733 | 0.714 | 0.384 | 0.336 | 0.311 | 0.531 | 0.491 | 0.476 | 0.403 | 0.319
NCI-H647 | 1.08 | 0.174 | 0.0715 | 0.0975 | 0.0551 | 0.783 | 0.224 | 0.0897 | 0.0721 | 0.0698 | 0.574 | 0.103 | 0.0533 | 0.0536 | 0.0389 | 0.211 | 0.178 | 0.072 | 0.0569 | 0.0589
NCI-H650 | 0.816 | 0.486 | 0.179 | 0.177 | 0.159 | 0.847 | 0.327 | 0.201 | 0.151 | 0.175 | 0.364 | 0.241 | 0.113 | 0.115 | 0.102 | 0.865 | 0.555 | 0.222 | 0.128 | 0.12
NCI-H661 | 0.594 | 0.503 | 0.185 | 0.177 | 0.172 | 0.838 | 0.655 | 0.491 | 0.213 | 0.209 | 0.78 | 0.783 | 0.655 | 0.274 | 0.232 | 0.895 | 0.998 | 0.891 | 0.299 | 0.216
NCI-H838 | 1.05 | 1.17 | 1.14 | 0.557 | 0.169 | 0.911 | 0.948 | 1.02 | 0.355 | 0.0993 | 0.787 | 0.842 | 0.534 | 0.282 | 0.12 | 0.251 | 0.262 | 0.24 | 0.241 | 0.149
NCI-H1355 | 0.756 | 0.569 | 0.135 | 0.156 | 0.116 | 1.17 | 0.948 | 0.521 | 0.145 | 0.16 | 0.667 | 0.441 | 0.141 | 0.157 | 0.151 | 1 | 0.885 | 0.455 | 0.173 | 0.162
NCI-H1437 | 1.15 | 0.873 | 0.373 | 0.185 | 0.0956 | 0.532 | 0.395 | 0.342 | 0.127 | 0.105 | 0.622 | 0.781 | 0.488 | 0.325 | 0.225 | 0.285 | 0.325 | 0.27 | 0.276 | 0.254
NCI-H1651 | 0.923 | 0.967 | 0.889 | 0.159 | 0.0819 | 0.988 | 0.89 | 0.919 | 0.885 | 0.173 | 0.182 | 0.193 | 0.187 | 0.138 | 0.075 | 0.561 | 0.575 | 0.584 | 0.362 | 0.0991
NCI-H1666 | 0.863 | 0.92 | 0.364 | 0.232 | 0.279 | 0.739 | 0.979 | 0.567 | 0.24 | 0.225 | 0.777 | 0.707 | 0.748 | 0.76 | 0.597 | 0.88 | 0.842 | 0.842 | 0.699 | 0.52
NCI-H1734 | 0.567 | 0.627 | 0.213 | 0.153 | 0.0967 | 1.08 | 0.862 | 0.199 | 0.157 | 0.102 | 0.535 | 0.348 | 0.183 | 0.111 | 0.102 | 0.408 | 0.377 | 0.197 | 0.139 | 0.136
NCI-H1755 | 0.897 | 0.919 | 0.768 | 0.25 | 0.215 | 0.952 | 0.958 | 0.84 | 0.343 | 0.312 | 0.872 | 0.887 | 0.787 | 0.425 | 0.278 | 0.414 | 0.47 | 0.319 | 0.376 | 0.355
NCI-H1792 | 0.774 | 0.483 | 0.182 | 0.101 | 0.07 | 1.08 | 0.925 | 0.308 | 0.133 | 0.093 | 0.578 | 0.0978 | 0.0544 | 0.112 | 0.0454 | 0.773 | 0.174 | 0.0569 | 0.0984 | 0.0556
NCI-H1915 | 1.02 | 1.11 | 1.04 | 0.711 | 0.308 | 0.978 | 1 | 0.969 | 0.825 | 0.617 | 0.246 | 0.255 | 0.258 | 0.233 | 0.192 | 0.484 | 0.516 | 0.453 | 0.513 | 0.475
NCI-H1975 | 0.795 | 0.792 | 0.314 | 0.18 | 0.157 | 0.385 | 0.401 | 0.207 | 0.198 | 0.155 | 0.755 | 0.78 | 0.433 | 0.179 | 0.139 | 0.286 | 0.29 | 0.306 | 0.178 | 0.173
NCI-H1993 | 0.706 | 0.642 | 0.528 | 0.528 | 0.491 | 1.08 | 1.15 | 0.713 | 0.524 | 0.446 | 1.01 | 0.908 | 0.519 | 0.412 | 0.428 | 0.545 | 0.513 | 0.516 | 1.17 | 0.409
